According to the NIST ThermoML archive (doi:10.1016/j.jct.2004.12.014):

Experiments:
[1] = excess molar enthalpy (molar enthalpy of mixing); xn = mol fraction of the nth substance listed; settings: 318.15 K, 101 kPa, Liquid
[2] = xn = mol fraction of the nth substance listed; settings: 318.15 K, 101 kPa, Liquid

CCCCCCCCCCCCCCCCC [heptadecane] + CCCCOC(=O)CC
Settings	excess molar enthalpy [kJ/mol]	excess molar volume [m3/mol]
[1], x2 = 0.0939	0.422	–
[1], x2 = 0.1935	0.734	–
[1], x2 = 0.2953	1.01	–
[1], x2 = 0.3647	1.16	–
[1], x2 = 0.4302	1.26	–
[1], x2 = 0.4836	1.3	–
[1], x2 = 0.5295	1.32	–
[1], x2 = 0.5642	1.31	–
[1], x2 = 0.5727	1.3	–
[1], x2 = 0.5964	1.3	–
[1], x2 = 0.6386	1.25	–
[1], x2 = 0.6808	1.19	–
[1], x2 = 0.7248	1.1	–
[1], x2 = 0.7703	0.989	–
[1], x2 = 0.8172	0.846	–
[1], x2 = 0.8639	0.687	–
[1], x2 = 0.911	0.486	–
[1], x2 = 0.9568	0.261	–
[2], x2 = 0.1135	–	3.06e-07
[2], x2 = 0.2186	–	5.48e-07
[2], x2 = 0.3079	–	7.39e-07
[2], x2 = 0.3903	–	8.52e-07
[2], x2 = 0.4652	–	8.98e-07
[2], x2 = 0.5331	–	9.21e-07
[2], x2 = 0.5915	–	9.16e-07
[2], x2 = 0.6482	–	8.91e-07
[2], x2 = 0.7001	–	8.35e-07
[2], x2 = 0.7497	–	7.85e-07
[2], x2 = 0.7938	–	6.9e-07
[2], x2 = 0.8335	–	6.09e-07
[2], x2 = 0.8704	–	5.1e-07
[2], x2 = 0.907	–	4.01e-07
[2], x2 = 0.9407	–	2.87e-07
[2], x2 = 0.9701	–	1.43e-07

CCCCOC(=O)CC [butyl propanoate] + CCCCCCCCCCCCC
Settings	excess molar enthalpy [kJ/mol]	excess molar volume [m3/mol]
[1], x1 = 0.0777	0.316	–
[1], x1 = 0.152	0.553	–
[1], x1 = 0.2315	0.774	–
[1], x1 = 0.3105	0.95	–
[1], x1 = 0.3857	1.06	–
[1], x1 = 0.4542	1.11	–
[1], x1 = 0.5154	1.13	–
[1], x1 = 0.5619	1.12	–
[1], x1 = 0.6157	1.09	–
[1], x1 = 0.6596	1.02	–
[1], x1 = 0.7081	0.942	–
[1], x1 = 0.7591	0.821	–
[1], x1 = 0.8107	0.69	–
[1], x1 = 0.857	0.552	–
[1], x1 = 0.9081	0.378	–
[1], x1 = 0.9555	0.195	–
[2], x1 = 0.0406	–	1.23e-07
[2], x1 = 0.0973	–	2.84e-07
[2], x1 = 0.1791	–	4.62e-07
[2], x1 = 0.2615	–	6.48e-07
[2], x1 = 0.3352	–	7.42e-07
[2], x1 = 0.4049	–	8.02e-07
[2], x1 = 0.4702	–	8.32e-07
[2], x1 = 0.5333	–	8.34e-07
[2], x1 = 0.5918	–	8.19e-07
[2], x1 = 0.6472	–	7.81e-07
[2], x1 = 0.6989	–	7.36e-07
[2], x1 = 0.7487	–	6.45e-07
[2], x1 = 0.7961	–	5.77e-07
[2], x1 = 0.84	–	4.79e-07
[2], x1 = 0.8821	–	3.67e-07
[2], x1 = 0.9219	–	2.68e-07
[2], x1 = 0.9617	–	1.52e-07

CCCCCCCCCCCCCCC [pentadecane] + CCC(=O)OC
Settings	excess molar enthalpy [kJ/mol]	excess molar volume [m3/mol]
[1], x2 = 0.125	0.718	–
[1], x2 = 0.233	1.24	–
[1], x2 = 0.3463	1.66	–
[1], x2 = 0.435	1.91	–
[1], x2 = 0.5058	2.03	–
[1], x2 = 0.5584	2.07	–
[1], x2 = 0.6021	2.07	–
[1], x2 = 0.6368	2.04	–
[1], x2 = 0.6819	1.95	–
[1], x2 = 0.7197	1.84	–
[1], x2 = 0.7527	1.71	–
[1], x2 = 0.7913	1.54	–
[1], x2 = 0.8294	1.33	–
[1], x2 = 0.8668	1.14	–
[1], x2 = 0.9037	0.907	–
[1], x2 = 0.94	0.631	–
[1], x2 = 0.9713	0.33	–
[2], x2 = 0.0815	–	3.78e-07
[2], x2 = 0.1606	–	7e-07
[2], x2 = 0.2792	–	1.134e-06
[2], x2 = 0.377	–	1.401e-06
[2], x2 = 0.4695	–	1.535e-06
[2], x2 = 0.5395	–	1.586e-06
[2], x2 = 0.6103	–	1.569e-06
[2], x2 = 0.6695	–	1.514e-06
[2], x2 = 0.7187	–	1.405e-06
[2], x2 = 0.7639	–	1.277e-06
[2], x2 = 0.8034	–	1.137e-06
[2], x2 = 0.8389	–	1.001e-06
[2], x2 = 0.8718	–	8.65e-07
[2], x2 = 0.9023	–	7.29e-07
[2], x2 = 0.9297	–	5.72e-07
[2], x2 = 0.9549	–	4.07e-07
[2], x2 = 0.9781	–	2.28e-07

CCCCOC(=O)CC [butyl propanoate] + CCCCCCCCCCC
Settings	excess molar enthalpy [kJ/mol]	excess molar volume [m3/mol]
[1], x1 = 0.0817	0.329	–
[1], x1 = 0.1628	0.552	–
[1], x1 = 0.2473	0.764	–
[1], x1 = 0.325	0.901	–
[1], x1 = 0.3967	0.98	–
[1], x1 = 0.463	1.02	–
[1], x1 = 0.4868	1.02	–
[1], x1 = 0.5197	1.02	–
[1], x1 = 0.5243	1.01	–
[1], x1 = 0.5644	1	–
[1], x1 = 0.6091	0.97	–
[1], x1 = 0.6567	0.939	–
[1], x1 = 0.7051	0.84	–
[1], x1 = 0.7582	0.732	–
[1], x1 = 0.8113	0.617	–
[1], x1 = 0.8642	0.478	–
[1], x1 = 0.9137	0.326	–
[1], x1 = 0.9601	0.167	–
[2], x1 = 0.0439	–	1.43e-07
[2], x1 = 0.0844	–	2.51e-07
[2], x1 = 0.1613	–	4.24e-07
[2], x1 = 0.2331	–	5.45e-07
[2], x1 = 0.3029	–	6.41e-07
[2], x1 = 0.3719	–	7.16e-07
[2], x1 = 0.4347	–	7.45e-07
[2], x1 = 0.4991	–	7.49e-07
[2], x1 = 0.5571	–	7.43e-07
[2], x1 = 0.6136	–	7.09e-07
[2], x1 = 0.6682	–	6.64e-07
[2], x1 = 0.7205	–	6.18e-07
[2], x1 = 0.7715	–	5.27e-07
[2], x1 = 0.8193	–	4.41e-07
[2], x1 = 0.8661	–	3.61e-07
[2], x1 = 0.9118	–	2.76e-07
[2], x1 = 0.9546	–	1.35e-07

CCCCCCCCCCCCC [tridecane] + CCCOC(=O)CC
Settings	excess molar enthalpy [kJ/mol]	excess molar volume [m3/mol]
[1], x2 = 0.0771	0.345	–
[1], x2 = 0.1623	0.643	–
[1], x2 = 0.248	0.909	–
[1], x2 = 0.3288	1.1	–
[1], x2 = 0.4032	1.23	–
[1], x2 = 0.471	1.3	–
[1], x2 = 0.5295	1.32	–
[1], x2 = 0.5719	1.3	–
[1], x2 = 0.5818	1.29	–
[1], x2 = 0.6224	1.25	–
[1], x2 = 0.6662	1.18	–
[1], x2 = 0.7127	1.09	–
[1], x2 = 0.7593	0.971	–
[1], x2 = 0.8089	0.834	–
[1], x2 = 0.8585	0.672	–
[1], x2 = 0.9084	0.475	–
[1], x2 = 0.9562	0.254	–
[2], x2 = 0.1068	–	3.54e-07
[2], x2 = 0.2003	–	6.1e-07
[2], x2 = 0.2831	–	7.8e-07
[2], x2 = 0.3626	–	8.99e-07
[2], x2 = 0.4343	–	9.83e-07
[2], x2 = 0.4988	–	1.001e-06
[2], x2 = 0.5633	–	1.013e-06
[2], x2 = 0.6197	–	9.68e-07
[2], x2 = 0.6738	–	9.29e-07
[2], x2 = 0.7241	–	8.44e-07
[2], x2 = 0.7705	–	7.66e-07
[2], x2 = 0.8135	–	6.6e-07
[2], x2 = 0.8558	–	5.36e-07
[2], x2 = 0.8941	–	4.18e-07
[2], x2 = 0.9306	–	2.67e-07
[2], x2 = 0.9641	–	1.43e-07
